Data taken from patent US5646128A, “Methods for treating adenosine kinase related conditions” (priority 1994, dated 1997).
Entries after “also recorded” stand apart in the source; their conditions may differ. Where two headings read alike, the source gives them in different places.

Tests used:
heart = conditions: in vivo; cited from earlier work
[1] = tested on: tumor necrosis factor alpha; conditions: cited from earlier work
[2] = tested on: perfusate adenosine, isolated rat hearts; conditions: normoxic, hypoxic, anoxic or ischemic conditions; alone; cited from earlier work
[3] = mouse, in vivo; cited from earlier work
[4] = tested on: adenosine uptake, guinea pig brain slices; conditions: cited from earlier work
[5] = cited from earlier work
[6] = tested on: dog hearts subjected to ischemia and reperfusion; conditions: in vivo; cited from earlier work
[7] = tested on: adenosine uptake, rat brain slices; conditions: cited from earlier work
adenosine kinase = molecular target: T1, adenosine kinase (Bos taurus, UniProt A0AAA9RZ79); assay: Adenosine kinase inhibition in intact cells (capillary endothelial cells from bovine heart); type: cell-based; conditions: 20 μM 2'-deoxycoformycin, 5 μM [3H]adenosine
T1 construct: endogenous in cells; host or cells: capillary endothelial cells from bovine heart
T1 sequence (A0AAA9RZ79 1-362): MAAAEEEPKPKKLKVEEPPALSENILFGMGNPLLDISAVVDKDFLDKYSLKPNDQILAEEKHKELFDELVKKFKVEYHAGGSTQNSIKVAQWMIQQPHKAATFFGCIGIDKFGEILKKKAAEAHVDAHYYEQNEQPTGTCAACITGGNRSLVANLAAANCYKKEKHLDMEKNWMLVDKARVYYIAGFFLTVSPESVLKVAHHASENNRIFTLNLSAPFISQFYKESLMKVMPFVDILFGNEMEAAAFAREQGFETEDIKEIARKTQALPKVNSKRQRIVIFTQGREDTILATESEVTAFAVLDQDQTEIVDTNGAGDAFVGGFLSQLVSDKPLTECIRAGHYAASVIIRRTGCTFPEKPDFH
Experimental: Inhibition of adenosine kinase in intact cells was determined from the amount of incorporation of radioisotope from adenosine into the adenylates (AMP, ADP and ATP) in the presence of adenosine deaminase inhibition. […] The media was then discarded and the cells were treated with 50 μl 0.4M perchloric acid, centrifuged and the supernalants neutralized with 100 μl alanine: freon (1:4).

[8] = tested on: E. Coli 0111:B4 lipopolysaccharide (LPS) endotoxic shock; assay: Endotoxic shock in pigs; type: in vivo, Yucatan miniature pigs
Experimental: Male or female Yucatan miniature pigs (20-27 kg) were pre-medicated with xylazine ([…] i.m.), ketamine (150 mg i.m.), and atropine (1 mg i.m.). The animals were intubated, administered 10 mg/kg of pentobarbital intravenously, and covered with a blanket to maintain normal body temperature. A pentobarbital infusion was maintained at 10 mg/kg/hr. The pigs were ventilated with 30% O2 using a Harvard large animal respirator at 7-10 breaths/rain in order to achieve a blood pH of approximately 7.45-7.50. A bolus of 4 mg of Pancuronium bromide was given to inhibit muscle contraction in response to the cautery and the animals were hydrated with a continuous infusion of saline at 60-80 cc/hr. A left thoracotomy was performed in the third intercostal space and the pulmonary artery, carotid artery, external jugular vein were cannulated with PE-190 tubing. A line was also placed in the left atrium and a catheter tipped micromanometer was inserted into the left ventricle via an apical stab wound. A transit-time flow probe was placed on the pulmonary artery. Pressure readings were obtained using a Statham pressure transducer connected to a Gould strip chart recorder. Heparinized arterial blood samples for blood gases were obtained through the carotid arterial catheter. Drugs and endotoxin were infused through the external jugular catheter.
After the animals had stabilized, a continuous infusion of GP-1-515 (0.3 μg/kg/m in) was started, followed 30 min later by a slow infusion of E. Coli 0111:B4 lipopolysaccharide (LPS) (Sigma Chemical Co., St. Louis, Mo.) over 30 min. The animals continued to receive GP-1-515 or vehicle for 4 additional hours and were ventilated with a fixed tidal volume and FiO2. […] Control animals developed severe hypoxemia, hypercapnia, and acidosis. […] 4/7pigs in the control group died (several of whom had frank pulmonary edema) compared to 1/7in the GP-1-515-treated group. Upon completion of the study, the surviving animals were euthanized with an intravenous bolus of pentobarbital.

TNF-α = assay: Inhibition of TNF-alpha production in endotoxemic mice (ELISA); type: in vivo, Balb/C mice; conditions: 0.1 mg/kg i.v., one hour after LPS; p<0.01
Experimental: In these experiments, plasma TNF-α levels were measured in GP-1-515and placebo-treated mice (8 animals per group). Balb/C mice received an intravenous injection of E. coli LPS (900 ug/animal) (Sigma Chemical Co.) followed immediately by a second injection with 0.1 mg/kg of GP-1-515 or vehicle. Some animals were pretreated with an intraperitoneal injection of the adenosine receptor antagonist 8SPT. One hour later, blood was obtained from ether anesthetized animals by intracardiac puncture using a heparinized syringe. Blood samples were chilled on ice, centrifuged at 5000 rpm in a microcentrifuge for 5 minutes, and the plasma removed. TNF-α levels in the plasma were assayed by ELISA according to the instructions provided by the manufacturer (Endogen, Cambridge, Mass.).

[9] = tested on: bacterial peritonitis and septic shock; assay: Cecal ligation and puncture, model of chronic sepsis; type: in vivo, male CD rats; conditions: 5 mg/kg orally, 2 hours before
Experimental: Cecal ligation and puncture (CLP) is a model of bacterial peritonitis and septic shock which mimics systemic infections in humans. In these experiments, male CD rats were fasted overnight and treated orally with either GP-1-515 (5 mg/kg) or vehicle by gavage. Two hours later, animals were anesthetized with ether and the anterior abdominal wall was shaved. A midline incision was made and the cecum was exteriorized and ligated with 3-0 silk suture near the ilial-cecal junction without causing bowel obstruction. The cecum was punctured twice on the anti-mesenteric side using a yellow tip disposable pipette tip (Fisher, Tustin, Calif.) and squeezed to ensure patency. The cecum was placed back in the abdominal cavity and the peritoneal wall was closed with 5-0 nylon sutures. The skin was closed with 9 mm stainless steel wound clips. The animals were resuscitated with a subcutaneous injection of 2 mL of sterile saline. No antibiotics were administered.

bacterial translocation = assay: Burn model, bacterial translocation to mesenteric lymph nodes; type: in vivo, Female CF-1 mice
Experimental: Female CF-1, non-Swiss, non-albino mice (age 8-12 weeks) (Charles River Laboratory, Wilmington, Mass.) were anesthetized with a 1-2 minute exposure to methoxyflurane (Abbott Labs, Chicago, Ill.). The shaved dorsum was burned by a 6-second exposure to steam using a 3.5×5.5 cm template to produce a 32% total body surface area full thickness burn. Animals were resuscitated with 1 mL of normal saline i.p., followed by 0.1 mg/kg i.p./injection of GP-1-515 or an equal amount of vehicle. Animals also received an i.p. injection of morphine sulfate (15 mg/kg). The animals were administered a second injection of GP-1-515 (0.1 mg/kg) or vehicle i.p. 6 hours after the burn. Animals were fasted for 4 hours before the burn and for 24 hours thereafter. After 48 hours, the animals were sacrificed by cervical dislocation and the abdomen was opened using aseptic techniques. Mesenteric lymph nodes were harvested and weighed in sterile bags, homogenized in Trypticate Soy Broth (BBL, Becton Dickinson Microbiology System, Cockeysville, Md.). Ser. dilutions of the homogenate were plated on […] plates (BBL, Becton Dickinson) at 37° C. and the presence or absence of bacterial colonies was determined 48 hours later. In experiments involving approximately 120 animals, 52% of control mice had positive mesenteric lymph node cultures compared to 32% of GP-1-515-treated mice (p<0.05).

E. coli LPS endotoxemia [10] = assay: Prophylactic treatment for endotoxemia in mice; type: in vivo, Balb/C mice; conditions: 5 mg/kg oral, 6 hours before 700 ug LPS i.v.
Experimental: As shown in Example E, intravenous treatment with an adenosine kinase inhibitor improves survival of mice if administered immediately after intravenous injection with LPS. In the following experiments, it was shown that an adenosine kinase inhibitor (GP-1-515) protects animals against endotoxemia if administered prophylactically. In these experiments, 25-30 gram male Balb/C mice received oral GP-1-515 (5 mg/kg in water) or vehicle by gavage. Six hours later, the animals received an intravenous injection of 700 ug of E. coli LPS (Sigma Chemical Co.). In an experiment involving 10 animals per group, 50% of mice in the adenosine kinase inhibitor-treated group survived for 2 days, while none of animals in the vehicle treated group survived for that time period (data not shown).

E. coli LPS endotoxemia [11] = assay: Survival in endotoxemia (E. coli LPS) in mice; type: in vivo, Balb/C mice; conditions: i.v. immediately after 900 ug LPS i.v.; p=0.015
Source text: An adenosine kinase inhibitor (GP-1-515) was used to increase endogenous adenosine production in vivo.

[12] = Oral bioavailability (statement); type: in vivo; conditions: pro-drug of GP-1-515
[13] = tested on: plasma leakage in rat skin; assay: Suppression of vascular (plasma) leakage in rat skin, Evans' Blue; type: in vivo, Male SA rats; conditions: for inhibition at 5 mg/kg: Rattus norvegicus, po, 5 mg/kg p.o. 1 hr prior
Experimental: Leakage of plasma into inflamed skin was measured using Evans' Blue (Sigma Chemical Co., St. Louis, Mo.), which binds irreversibly to albumin. Evans' Blue and bovine serum albumin (Sigma) were mixed (20 and 40 mg/mL PBS, respectively) and incubated for 15 min at room temperature in order to form a conjugate. The mixture was then filtered through a 0.45 μm pore syringe filter and immediately used. […] The rats were then briefly anesthetized with halothane and dorsal skin injection sites (up to 4/rat) were stamped with a 12 mm test tube inked with a felt pad. Every site received 100 μl of an inflammatory agent or PBS injected intradermally into the middle of the circular mark. Inflammatory agents included carrageenan (1%) and histamine (10^-3 M) (Sigma). Rats were then returned to their cages. Two hrs later, animals were again anesthetized and 0.5 mL blood was obtained through orbital plexus bleed. Following sacrifice of the rats, the injection sites were excised along the marked lines, and subcutaneous muscle and fat layers were removed from the skin biopsies. Each skin biopsy was weighed and cut in four, and its Evans' Blue content was extracted overnight by incubation in 1 mL N,N-dimethylformamide (Aldrich, Milwaukee, Wis.). The absorbance at 650 nm of plasma samples and skin extracts was read in a plate reader, and the plasma content of each skin piece was calculated and expressed as μl plasma/g tissue.

Nc1ncnc2c1ncn2[C@@H]1O[C@H](CO)[C@@H](O)[C@H]1O [Adenosine, adenosine]
coronary steal (heart): cause coronary steal
inotropic, chronotropic and dromotropic effects (heart): negative inotropic, chronotropic and dromotropic effects
in vitro production of tumor necrosis factor alpha [1]: inhibit in vitro production

Nc1ncnc2c1c(I)cn2[C@@H]1O[C@H](CO)[C@@H](O)[C@H]1O [GP-1-202, 5-iodotubercidin, reference compound]
perfusate adenosine concentration, isolated rat hearts [2]: no increase in perfusate adenosine concentration
body temperature in mice [3]: hypothermia
flaccidity and locomotor activity in mice [3]: pronounced general flaccidity and much-reduced spontaneous locomotor activity
adenosine uptake, guinea pig brain slices [4]: inhibited
blood pressure and heart rate in anesthetized rats [5]: decrease blood pressure and heart rate
effects in dog hearts, ischemia and reperfusion [6]: inconsistent effects
adenosine uptake, rat brain slices [7]: inhibited

NC[C@H]1O[C@@H](n2nc(Br)c3c(N)ncnc32)[C@H](O)[C@@H]1O [GP-1-515]
IC50 (adenosine kinase): 9 nM
gas exchange, pulmonary function, blood gases ([8]; 0.3 μg/kg/min infusion): marked protection; also recorded: minimal changes in blood gases; also recorded: did not develop the hypoxemia, hypercapnia and acidosis exhibited in the control animals
pigs died ([8]; control 4/7): 1/7
blood pressure ([8]; versus control): Blood pressures were similar in the treated and control groups
heart rate ([8]; versus control): the control group,, required a significantly higher heart rate; also recorded: lower heart rates than control animals
other hemodynamic parameters, including pulmonary flow and pulmonary vascular resistance ([8]; versus untreated): either not different or modestly improved
plasma TNF-α levels (TNF-α): significantly decreased plasma TNF-α levels
survival after cecal ligation and puncture [9]: improved survival
mice with positive mesenteric lymph node cultures (bacterial translocation; 0.1 mg/kg i.p. twice, 48 hours, control 52%, p<0.05): 32%
bacterial translocation (bacterial translocation; after a severe burn (or pancreatitis)): significantly decreased; also recorded: significantly reduce bacterial translocation
mice surviving for 2 days (E. coli LPS endotoxemia [10]): 50%
survival in endotoxic shock (E. coli LPS endotoxemia [11]): dose-dependent increase in survival; also recorded: protecting against endotoxic shock

CC(=O)O[C@@H]1[C@H](OC(C)=O)[C@@H](CN)O[C@H]1n1nc(Br)c2c(N)ncnc21 [GP-1-792, 4-amino-1-(5-amino-5-deoxy-2,3-di-O-acetyl-1-β-D-ribofuranosyl)-3-bromopyrazolo[3,4-d]pyrimidine]
oral bioavailability [12]: orally bioavailable
suppression of carrageenan and histamine induced plasma leakage ([13]; FIG. 13 legend): suppression of carrageenan and histamine induced plasma leakage
inhibition at 5 mg/kg ([13]; carrageenan (1%), read-out: inhibition of carrageenan-induced plasma leakage): 47 ± 5%
inhibition at 5 mg/kg ([13]; histamine (10^-3 M), read-out: inhibition of histamine-induced plasma leakage): 51 ± 5%
